Experimental data: patent US9624228B2, “Inhibitors of ERK and methods of use” (KURA ONCOLOGY, INC., priority 2013, dated 2017)

molecular target: ERK2 enzyme (Homo sapiens (Human), UniProt P28482); assay: Inhibition assay of ERK (Z'-LYTE kinase assay, Ser/Thr 3 peptide substrate); assay type: biochemical; details: In vitro ERK2 enzyme, 100 μM ATP
Protocol: The inhibition of ERK activity by the compounds disclosed herein was determined using the Z′-LYTE kinase assay kit (Life Technologies) with a Ser/Thr 3 peptide substrate (Life Technologies) according to manufacturers' instructions. […] The IC50 values for the compounds were determined with 3-fold serial dilutions in duplicate. […] The final DMSO concentration in the assay was 1%. Final reaction volume was 20 μL/well in 384-well plates. Kinase reactions were conducted or 1 hour followed by the assay development reaction (1 hour) in a 20 ul/well in a 384 well plate format.

ERK2 enzyme, sequence (P28482 whole entry): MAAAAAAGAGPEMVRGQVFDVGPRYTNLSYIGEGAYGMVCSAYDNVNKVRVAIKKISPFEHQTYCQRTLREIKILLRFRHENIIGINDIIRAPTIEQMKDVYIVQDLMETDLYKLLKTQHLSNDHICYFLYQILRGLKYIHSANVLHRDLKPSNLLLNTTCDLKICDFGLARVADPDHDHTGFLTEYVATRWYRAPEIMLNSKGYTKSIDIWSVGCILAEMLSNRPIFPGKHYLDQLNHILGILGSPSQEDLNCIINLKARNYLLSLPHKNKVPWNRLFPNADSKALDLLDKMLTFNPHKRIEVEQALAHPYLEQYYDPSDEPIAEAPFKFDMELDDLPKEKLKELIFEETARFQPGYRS

Compound	IC50
Cc1cc(-c2n[nH]c3cc4c(cc23)CN(CCc2cccc(Cl)c2)C(=O)N4)ccn1 [Compound 50]	< 50 nM
COc1ncccc1CN1Cc2cc3c(-c4ccnc(C)c4)n[nH]c3cc2NC1=O [Compound 9]	< 50 nM
COCCOCCN1Cc2cc3c(-c4ccnc(C)c4)n[nH]c3cc2NC1=O [Compound 45]	< 50 nM
Cc1cc(-c2n[nH]c3cc4c(cc23)CN(Cc2cc(F)cc(F)c2)C(=O)N4)ccn1 [Compound 7]	< 50 nM
O=C1Nc2cc3[nH]nc(-c4ccncc4)c3cc2CN1Cc1cccc(Cl)c1 [Compound 3]	< 50 nM
COc1ncc(-c2n[nH]c3cc4c(cc23)CN([C@H](C)c2cccc(Cl)c2)C(=O)N4)cn1 [Compound 71]	< 50 nM
Cc1cc(-c2n[nH]c3cc4c(cc23)CN(CCNCc2ccc(F)c(Cl)c2)C(=O)N4)ccn1 [Compound 173]	< 50 nM
COc1ccc(-c2n[nH]c3cc4c(cc23)CN(Cc2ccc(F)c(Cl)c2)C(=O)N4)cn1 [Compound 36]	< 50 nM
O=C1Nc2cc3[nH]nc(Br)c3cc2CN1Cc1ccc(F)cc1 [Compound 29]	250 to 1000 nM
O=C1Nc2cc3[nH]nc(-c4ccnnc4)c3cc2CN1[C@H](CO)c1cccc(Cl)c1 [Compound 117]	< 50 nM
COc1ccc(-c2n[nH]c3cc4c(cc23)CN(Cc2ccc(F)cc2F)C(=O)N4)cn1 [Compound 87]	< 50 nM
Cc1cc(-c2n[nH]c3cc4[nH]c(=O)c(C(C)C5CCCCC5)cc4cc23)ccn1 (stereo not drawn) [Compound 160]	50 to 250 nM
O=C1Nc2cc3[nH]nc(-c4ccccn4)c3cc2CN1Cc1cccc(Cl)c1 [Compound 91]	50 to 250 nM
Cc1cc(-c2n[nH]c3cc4c(cc23)CN([C@H](C)c2ccc(Cl)cc2)C(=O)N4)ccn1 [Compound 16]	< 50 nM
O=C1Nc2cc3[nH]nc(-c4ccnnc4)c3cc2CN1CCc1ccc(F)cc1 [Compound 110]	< 50 nM
Cc1cc(-c2n[nH]c3cc4[nH]c(=O)c(C(C)c5ccccc5)cc4cc23)ccn1 (stereo not drawn) [Compound 22]	< 50 nM
O=C1Nc2cc3[nH]nc(-c4cn[nH]c4)c3cc2CN1Cc1ccc(F)c(Cl)c1 [Compound 48]	< 50 nM

Second part, the molecule after the results:

IC50	Compound
< 50 nM	Cc1cc(-c2n[nH]c3cc4c(cc23)CN([C@@H]2CCCN(Cc3ccccc3Cl)C2)C(=O)N4)ccn1 [Compound 158]
50 to 250 nM	Cc1cc(-c2n[nH]c3cc4c(cc23)CN([C@@H]2CCCN(Cc3ccccn3)C2)C(=O)N4)ccn1 [Compound 171]
50 to 250 nM	Cc1cc(-c2n[nH]c3cc4c(cc23)CN([C@@H]2CCCN(Cc3cnccc3C)C2)C(=O)N4)ccn1 [Compound 183]
< 50 nM	Cc1cc(-c2n[nH]c3cc4c(cc23)CN([C@@H]2CCCN(Cc3cc(C)no3)C2)C(=O)N4)ccn1 [Compound 139]
< 50 nM	Cc1cc(-c2n[nH]c3cc4c(cc23)CN(C2CCN(Cc3ccccc3)CC2)C(=O)N4)ccn1 [Compound 70]
< 50 nM	COc1ncc(-c2n[nH]c3cc4c(cc23)CN([C@@H]2CCCN(Cc3c(F)cccc3F)C2)C(=O)N4)cn1 [Compound 102]
< 50 nM	COc1ncc(-c2n[nH]c3cc4c(cc23)CN([C@@H]2CCCN(Cc3c(F)cccc3OC)C2)C(=O)N4)cn1 [Compound 103]
< 50 nM	[2H]c1c([2H])c([2H])c(C([2H])([2H])N2CCC[C@@H](N3Cc4cc5c(-c6ccnc(C)c6)n[nH]c5cc4NC3=O)C2)c([2H])c1[2H] [Compound 165]
50 to 250 nM	Cc1cc(-c2n[nH]c3cc4c(cc23)CN([C@@H]2CCCN(CC3CCC3)C2)C(=O)N4)ccn1 [Compound 137]
< 50 nM	Cc1cc(-c2n[nH]c3cc4c(cc23)CN([C@@H]2CCC[C@H](NCc3ccccc3)C2)C(=O)N4)ccn1 [Compound 177]
< 50 nM	Cc1cc(-c2n[nH]c3cc4c(cc23)CN([C@@H]2CCCN(Cc3csc(C)n3)C2)C(=O)N4)ccn1 [Compound 140]
< 50 nM	Cc1cc(-c2n[nH]c3cc4c(cc23)CN([C@@H]2CCCN(Cc3cccc(Cl)c3)C2)C(=O)N4)ccn1 [Compound 156]
< 50 nM	Cc1cc(-c2n[nH]c3cc4c(cc23)CN([C@@H]2CCCN(Cc3ccc(F)cc3)C2)C(=O)N4)ccn1 [Compound 151]
50 to 250 nM	Cc1cc(-c2n[nH]c3cc4c(cc23)CN([C@@H]2CCN(Cc3c(F)cccc3F)C2)C(=O)N4)ccn1 [Compound 147]
< 50 nM	Cc1cc(-c2n[nH]c3cc4c(cc23)CN([C@@H]2CCCN(CC(F)(F)F)C2)C(=O)N4)ccn1 [Compound 193]
< 50 nM	COc1cccc(F)c1CN1CC[C@@H](N2Cc3cc4c(-c5ccnc(C)c5)n[nH]c4cc3NC2=O)C1 [Compound 162]
50 to 250 nM	Cc1ccc(CN2CCC[C@@H](N3Cc4cc5c(-c6ccnc(C)c6)n[nH]c5cc4NC3=O)C2)cn1 [Compound 131]
< 50 nM	Cc1cc(-c2n[nH]c3cc4c(cc23)CN([C@@H]2CCCN(Cc3cccnc3C)C2)C(=O)N4)ccn1 [Compound 170]
< 50 nM	Cc1cc(-c2n[nH]c3cc4c(cc23)CN([C@@H]2CCCN(CC3CC5CCC3C5)C2)C(=O)N4)ccn1 (stereo partly drawn) [Compound 142]

same assay, conditions: In vitro, ERK2 enzyme 0.47 ng/μL, 100 μM ATP

Compound	IC50
Cc1ncc(-c2n[nH]c3cc4c(cc23)CN([C@@H]2CCN(CC(F)(F)F)C2)C(=O)N4)cn1 [Compound 282]	< 50 nM
Cc1cc(-c2n[nH]c3cc4c(cc23)CN([C@H](C)c2ccccc2)C(=O)N4)cc(C)n1 [Compound 377]	< 50 nM
Cc1cc(-c2n[nH]c3cc4c(cc23)CN([C@@H]2CN(CC(F)(F)F)C[C@H]2c2cccs2)C(=O)N4)ccn1 (mixture of isomers) [Compound 321]	< 50 nM
Cc1ncccc1-c1n[nH]c2cc3[nH]c(=O)c(C(C)c4ccccc4)cc3cc12 (stereo not drawn) [Compound 335]	< 50 nM
Cc1cc(-c2n[nH]c3cc4c(cc23)CN([C@H]2CN(C)C[C@@H]2c2ccccc2)C(=O)N4)cc(C)n1 [Compound 307]	50 to 250 nM
O=C1Nc2cc3[nH]nc(-c4ccc(N5CCOCC5)nc4)c3cc2CN1Cc1cccc(Cl)c1 [Compound 231]	< 50 nM
Cc1cc(-c2n[nH]c3cc4c(cc23)CN([C@@H]2CN(CC(F)(F)F)C[C@H]2c2ccccc2)C(=O)N4)ccn1 [Compound 222]	50 to 250 nM
COc1ncc(-c2n[nH]c3cc4c(cc23)CN([C@@H]2CCN(CC(F)(F)F)C2)C(=O)N4)cn1 [Compound 276]	< 50 nM
Cc1cc(-c2n[nH]c3cc4[nH]c(=O)c(C5CCCN(Cc6cccs6)C5)cc4cc23)ccn1 (stereo not drawn) [Compound 378]	50 to 250 nM
CC(c1ccccc1)c1cc2cc3c(N4CCOCC4)n[nH]c3cc2[nH]c1=O (stereo not drawn) [Compound 345]	< 50 nM
Cc1cnccc1-c1n[nH]c2cc3[nH]c(=O)c(C(C)c4ccccc4)cc3cc12 (stereo not drawn) [Compound 343]	50 to 250 nM
C[C@H](c1ccccc1)c1cc2cc3c(NC4CCOCC4)n[nH]c3cc2[nH]c1=O [Compound 357]	< 50 nM
Cc1cc(-c2n[nH]c3cc4c(cc23)CN([C@@H]2CN(CC(F)(F)F)C[C@H]2c2ccccc2)C(=O)N4)cc(C)n1 [Compound 242]	50 to 250 nM
Cc1cc(-c2n[nH]c3cc4c(cc23)CN([C@@H]2CN(CC(F)F)C[C@H]2c2ccccc2)C(=O)N4)ccn1 (mixture of isomers) [Compound 362]	< 50 nM
Cc1cc(-c2n[nH]c3cc4[nH]c(=O)c(C(C)c5ccc(F)cc5F)cc4cc23)ccn1 (stereo not drawn) [Compound 312]	50 to 250 nM
Cc1cc(-c2n[nH]c3cc4c(cc23)CN([C@@H]2CN(C(C)C)C[C@H]2c2ccccc2)C(=O)N4)ccn1 (racemic) [Compound 279]	< 50 nM
COc1cc(-c2n[nH]c3cc4c(cc23)CN([C@@H]2CN(C)C[C@H]2c2ccccc2)C(=O)N4)ccn1 (mixture of isomers) [Compound 354]	< 50 nM

The remaining lines, values ahead:

IC50	Compound
50 to 250 nM	COc1ccc(-c2n[nH]c3cc4c(cc23)CN([C@H]2CCCN(Cc3ccccc3)C2)C(=O)N4)cn1 [Compound 368]
250 to 1000 nM	COc1ccc(-c2n[nH]c3cc4c(cc23)CN([C@H]2CCCN(Cc3ccc(F)cc3F)C2)C(=O)N4)cn1 [Compound 369]
50 to 250 nM	Cc1cc(-c2n[nH]c3cc4c(cc23)CN([C@@H]2CCCN(c3cccc(C)n3)C2)C(=O)N4)ccn1 [Compound 238]
50 to 250 nM	Cc1cc(-c2n[nH]c3cc4c(cc23)CN(CCC2CC2)C(=O)N4)ccn1 [Compound 283]
250 to 1000 nM	Cc1cc(-c2n[nH]c3cc4c(cc23)CN([C@@H]2CN(C)C[C@H]2C(C)C)C(=O)N4)ccn1 (mixture of isomers) [Compound 327]
< 50 nM	Cc1cc(-c2n[nH]c3cc4c(cc23)CN([C@@H]2CCCN(Cc3ccc(C)s3)C2)C(=O)N4)ccn1 [Compound 245]
< 50 nM	Cc1cc(-c2n[nH]c3cc4c(cc23)CN([C@H]2CCN(CC(F)(F)F)C2)C(=O)N4)ccn1 [Compound 299]
< 50 nM	Cc1cc(-c2n[nH]c3cc4c(cc23)CN([C@@H]2CCCN(Cc3csc(C)c3)C2)C(=O)N4)ccn1 [Compound 251]
< 50 nM	Cc1cc(-c2n[nH]c3cc4c(cc23)CN(Cc2nc(C)cs2)C(=O)N4)ccn1 [Compound 246]
250 to 1000 nM	Cc1cc(-c2n[nH]c3cc4c(cc23)CN([C@@H]2CCN(CC3CCCC3)C2)C(=O)N4)ccn1 [Compound 206]
< 50 nM	Cc1cc(-c2n[nH]c3cc4c(cc23)CN(CC2CCCC2)C(=O)N4)ccn1 [Compound 212]
< 50 nM	Cc1cc(-c2n[nH]c3cc4c(cc23)CN(C2CCCC2)C(=O)N4)ccn1 [Compound 205]
50 to 250 nM	Cc1cc(-c2n[nH]c3cc4c(cc23)CN([C@@H]2CCN(c3cccc(Cl)c3)C2)C(=O)N4)ccn1 [Compound 249]
< 50 nM	Cc1cc(-c2n[nH]c3cc4c(cc23)CN(C2CCC(F)(F)CC2)C(=O)N4)ccn1 [Compound 224]
250 to 1000 nM	Cc1cc(-c2n[nH]c3cc4c(cc23)CN(C2CN(CC3CC3)C2)C(=O)N4)ccn1 [Compound 198]
< 50 nM	Cn1cc(-c2n[nH]c3cc4c(cc23)CN([C@@H]2CCCN(Cc3cccs3)C2)C(=O)N4)cn1 [Compound 298]
